# What was measured:
# Assay type in all cases: cell-based
# [1] = test system: STAPHYLOCOCCUS AUREUS NCTC10649M; experiment: In vitro antibacterial activity, MIC, BHI agar dilution; conditions: S. aureus NCTC10649M, unit assumed
# [2] = test system: PSEUDOMONAS AERUGINOSA 5007; experiment: as above; conditions: P. aeruginosa 5007, unit assumed
# [3] = test system: STAPHYLOCOCCUS AUREUS A5177; experiment: as above
# [4] = test system: STAPHYLOCOCCUS AUREUS CMX 553; experiment: as above; conditions: S. aureus CMX 553, unit assumed
# [5] = test system: PROVIDENCIA STUARTII CMX 640; conditions: P. stuartii CMX 640; BHI agar; unit assumed
# CANDIDA ALBICANS CCH 442 = experiment: In vitro antibacterial activity, MIC, BHI agar dilution; conditions: C. albicans CCH 442, unit assumed
# [6] = test system: STAPHYLOCOCCUS AUREUS A-5278; experiment: as above; conditions: S. aureus A-5278, unit assumed
# [7] = test system: PSEUDOMONAS AERUGINOSA BMH10; experiment: as above; conditions: P. aeruginosa BMH10, unit assumed
# [8] = test system: PSEUDOMONAS AERUGINOSA DPHD-5263; experiment: as above; conditions: P. aeruginosa DPHD-5263, unit assumed
# ESCHERICHIA COLI H560 = experiment: as above; conditions: E. coli H560, unit assumed
# ESCHERICHIA COLI JUHL = conditions: E. coli JUHL; BHI agar; unit assumed
# ESCHERICHIA COLI KNK 437 = conditions: E. coli KNK 437; BHI agar; unit assumed
# [9] = test system: PSEUDOMONAS AERUGINOSA K799/61; experiment: In vitro antibacterial activity, MIC, BHI agar dilution; conditions: P. aeruginosa K799/61, unit assumed
# [10] = test system: ENTEROBACTER AEROGENES ATCC 13048; experiment: as above; conditions: E. aerogenes ATCC 13048, unit assumed
# STR[…] 508 = experiment: as above; conditions: S. agalactiae CMX 508, unit assumed
# Summary of the method: (§1)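 BHI agar dilution, 12 plates; inoculum 1:100 (1:10 slow-growing strains), Steers replicator; 35-37° C, 20-24 h. MIC = lowest conc. with no growth/slight haze/sparse colonies vs growth control, visual read. Erythromycin A reference plate.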
# M[…] ATCC 4698 = experiment: as above; conditions: M. luteus ATCC 4698, unit assumed
# Summary of the method: as §1
# M[…] ATCC 9341 = experiment: as above; conditions: M. luteus ATCC 9341, unit assumed
# Summary of the method: as §1
# EN[…] ATCC 8043 = experiment: as above; conditions: E. faecium ATCC 8043, unit assumed
# Summary of the method: as §1
# [11] = test system: PSEUDOMONAS AERUGINOSA K799/WT; experiment: as above; conditions: P. aeruginosa K799/WT, unit assumed
# [12] = test system: STAPHYLOCOCCUS AUREUS CMX 642A; experiment: as above; conditions: S. aureus CMX 642A, unit assumed
# [13] = test system: MYCOBACTERIUM SMEGMATIS ATCC 114; experiment: as above; conditions: M. smegmatis ATCC 114, unit assumed
# [14] = test system: KLEBSIELLA PNEUMONIAE ATCC 8045; experiment: as above; conditions: K. pneumoniae ATCC 8045, unit assumed
# [15] = test system: STREPTOCOCCUS PYOGENES EES61; experiment: as above; conditions: S. pyogenes EES61, unit assumed
# ESCHERICHIA COLI SS = experiment: as above; conditions: E. coli SS, unit assumed
# [16] = test system: PSEUDOMONAS AERUGINOSA DPHD-2862; experiment: as above; conditions: P. aeruginosa DPHD-2862, unit assumed
# ESCHERICHIA COLI DC-2 = experiment: as above; conditions: E. coli DC-2, unit assumed
# [17] = test system: STAPHYLOCOCCUS AUREUS 1775; experiment: as above; conditions: S. aureus 1775, unit assumed
# [18] = test system: STAPHYLOCOCCUS AUREUS ATCC 6538P; experiment: as above; conditions: S. aureus ATCC 6538P, 35-37° C., 20 to 24 hours, unit assumed
# [19] = test system: STREPTOCOCCUS PYOGENES PIU 2548; experiment: as above; conditions: S. pyogenes PIU 2548, unit assumed
# [20] = test system: STAPHYLOCOCCUS EPIDERMIDIS 3519; conditions: S. epidermidis 3519; BHI agar; unit assumed
# PSEUDOMONAS CEPACIA 296I = experiment: In vitro antibacterial activity, MIC, BHI agar dilution; conditions: P. cepacia 296I, unit assumed
# [21] = test system: STREPTOCOCCUS PYOGENES 930; experiment: as above; conditions: S. pyogenes 930, unit assumed
# [22] = test system: STREPTOCOCCUS BOVIS A-5169; experiment: as above; conditions: S. bovis A-5169, unit assumed
SMILES,MIC [2] [µg/mL],MIC [4] [µg/mL],MIC [5] [µg/mL],MIC (CANDIDA ALBICANS CCH 442) [µg/mL],MIC [6] [µg/mL],MIC [7] [µg/mL],MIC [8] [µg/mL],MIC (ESCHERICHIA COLI H560) [µg/mL],MIC (ESCHERICHIA COLI JUHL) [µg/mL],MIC (ESCHERICHIA COLI KNK 437) [µg/mL],MIC [9] [µg/mL],MIC (M[…] ATCC 4698) [µg/mL],MIC (M[…] ATCC 9341) [µg/mL],MIC (EN[…] ATCC 8043) [µg/mL],MIC [11] [µg/mL],MIC [12] [µg/mL],MIC [14] [µg/mL],MIC [15] [µg/mL],MIC (ESCHERICHIA COLI SS) [µg/mL],MIC [16] [µg/mL],other results
CC[C@H]1OC(=O)[C@H](C)[C@@H](O[C@H]2C[C@@](C)(OC)[C@@H](O)[C@H](C)O2)[C@H](C)[C@@H](O[C@@H]2O[C@H](C)C[C@H](N(C)C)[C@H]2O)[C@@H](C)C[C@@H](C)C2=NCCN3C(=O)O[C@@]1(C)[C@H]3[C@H]2C [Example 14],> 100,0.1,> 100,> 100,> 100,100,> 100,50,50,100,3.1,0.78,0.78,0.05,100,0.2,25,≤ 0.005,0.39,> 100,MIC [1]: 0.2 µg/mL; MIC ([3]; S. aureus A5177): 6.2 µg/mL; MIC [10]: 100 µg/mL; MIC (STR[…] 508): 0.01 µg/mL; MIC [13]: 3.1 µg/mL; MIC (ESCHERICHIA COLI DC-2): 50 µg/mL; MIC [17]: > 100 µg/mL; MIC [18]: 0.1 µg/mL; MIC [19]: 1.56 µg/mL; MIC [20]: 0.2 µg/mL
CC[C@H]1OC(=O)[C@H](C)C(=O)[C@H](C)[C@@H](O[C@@H]2O[C@H](C)C[C@H](N(C)C)[C@H]2O)[C@](C)(OC)C[C@@H](C)C2=N[C@@H]3CN(Cc4ccccc4)C[C@@H]3N3C(=O)O[C@@]1(C)[C@H]3[C@H]2C [Example 21],> 100,0.78,> 100,> 100,> 100,100,> 100,50,> 100,> 100,3.1,3.1,0.78,0.2,> 100,6.2,> 100,0.01,1.56,> 100,"MIC (PSEUDOMONAS CEPACIA 296I): > 100 µg/mL; MIC [1]: 0.78 µg/mL; MIC ([3]; S. aureus A5177, unit assumed): 0.78 µg/mL; MIC [21]: 100 µg/mL; MIC [10]: > 100 µg/mL; MIC (STR[…] 508): 0.05 µg/mL; MIC [22]: 0.05 µg/mL; MIC (ESCHERICHIA COLI DC-2): 100 µg/mL; MIC [17]: > 100 µg/mL; MIC [18]: 0.78 µg/mL; MIC [19]: 0.39 µg/mL; MIC [20]: 0.78 µg/mL"
CC[C@H]1OC(=O)[C@H](C)C(=O)[C@H](C)[C@@H](O[C@@H]2O[C@H](C)C[C@H](N(C)C)[C@H]2O)[C@](C)(OC)C[C@@H](C)C2=NC3CN(Cc4ccccc4)CC3N3C(=O)O[C@@]1(C)[C@H]3[C@H]2C (some centres unmarked) [Example 110],> 100,0.2,> 100,> 100,> 100,50,> 100,12.5,50,50,1.56,0.78,0.05,0.05,> 100,0.39,> 100,0.005,0.2,> 100,"MIC (PSEUDOMONAS CEPACIA 296I): 50 µg/mL; MIC ([3]; S. aureus A5177, unit assumed): 0.2 µg/mL; MIC [21]: 50 µg/mL; MIC (STR[…] 508): 0.02 µg/mL; MIC [22]: 0.02 µg/mL; MIC (ESCHERICHIA COLI DC-2): 25 µg/mL; MIC [17]: > 100 µg/mL; MIC [19]: 0.2 µg/mL; MIC [20]: 0.2 µg/mL"
CC[C@H]1OC(=O)[C@H](C)C(=O)[C@H](C)[C@@H](O[C@@H]2O[C@H](C)C[C@H](N(C)C)[C@H]2O)[C@](C)(OC)C[C@@H](C)C2=NCC(COC(=O)c3ccnc4ccccc34)N3C(=O)O[C@@]1(C)[C@H]3[C@H]2C (some centres unmarked) [Example 137],100,0.05,100,> 100,> 100,100,100,12.5,25,25,0.2,0.2,0.01,0.01,50,0.05,100,0.01,0.02,50,"MIC (PSEUDOMONAS CEPACIA 296I): 50 µg/mL; MIC [1]: 0.05 µg/mL; MIC ([3]; S. aureus A5177, unit assumed): 0.02 µg/mL; MIC [21]: 6.2 µg/mL; MIC [10]: 100 µg/mL; MIC [13]: 0.2 µg/mL; MIC (ESCHERICHIA COLI DC-2): 12.5 µg/mL; MIC [17]: > 100 µg/mL; MIC [18]: 0.02 µg/mL; MIC [19]: 0.2 µg/mL; MIC [20]: 0.05 µg/mL"

# From patent US6274715A, “Tricyclic erythromycin derivatives” (priority 1997, dated 2001)
